Reference: US20250215029A1 (Recludix Pharma, Inc., priority 2022, published 2025)
Like-named read-outs stand apart in the source and are kept apart here.

Key:
[1] = target: T1, Recombinant STAT3 protein (STAT3 (G127-I722)) (Homo sapiens, UniProt P40763); assay: STAT3 Fluorescence Polarization (FP) Assay; type: binding; details: probe 5-FAM-GpYLPQTV-NH2 2 nM, 45-minute incubation
T1 construct: Recombinant STAT3 protein (STAT3 (G127-I722))
How it was run: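 Compounds in serial dilution receive a premix of STAT3 (G127-I722, 25 nM) and fluorescent phosphotyrosine peptide 5-FAM-GpYLPQTV-NH2 (2 nM) at pH 7.4. After 45 min at room temperature, FP is measured and IC50 derived by nonlinear regression.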

[2] = target: T2, Recombinant STAT6 protein (STAT6 (W123-T658)) (Homo sapiens, UniProt P42226); assay: STAT6 Fluorescence Polarization (FP) Assay; type: binding; details: probe 5-FAM-Ap[…]-NH2 2 nM, 45-minute incubation
T2 construct: Recombinant STAT6 protein (STAT6 (W123-T658))
T2 sequence (P42226 123-658): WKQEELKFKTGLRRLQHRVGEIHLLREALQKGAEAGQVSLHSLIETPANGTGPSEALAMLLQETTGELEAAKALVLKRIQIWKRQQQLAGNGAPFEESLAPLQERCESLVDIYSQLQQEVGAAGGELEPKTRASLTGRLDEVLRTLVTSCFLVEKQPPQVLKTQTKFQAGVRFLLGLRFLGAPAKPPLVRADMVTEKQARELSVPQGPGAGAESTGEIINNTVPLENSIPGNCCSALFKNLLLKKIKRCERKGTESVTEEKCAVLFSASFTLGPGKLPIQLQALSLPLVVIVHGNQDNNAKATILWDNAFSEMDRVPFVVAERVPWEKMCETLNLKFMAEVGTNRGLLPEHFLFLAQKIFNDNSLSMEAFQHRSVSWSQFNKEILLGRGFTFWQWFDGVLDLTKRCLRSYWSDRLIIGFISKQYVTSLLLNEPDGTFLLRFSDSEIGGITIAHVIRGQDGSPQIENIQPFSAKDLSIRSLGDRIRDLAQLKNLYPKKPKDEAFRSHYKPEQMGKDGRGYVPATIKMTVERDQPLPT
How it was run: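 Displacement of a fluorescent phosphotyrosine peptide (2 nM) from 250 nM STAT6 (W123-T658) is measured by polarization after a 45-minute room-temperature incubation. Compounds are titrated serially at 1% DMSO, and IC50 values derive from regression of mP on log concentration.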

[3] = STAT3 (G127-I722) 25 nM, read-out: STAT3 (FP assay IC50 class)
[4] = STAT6 (W123-T658) 250 nM, read-out: STAT6 (FP assay IC50 class)
[5] = STAT3 25 nM, read-out: STAT3 (FP assay IC50)
[6] = STAT6 250 nM, read-out: STAT6 (FP assay IC50)

T1 sequence (P40763 127-722): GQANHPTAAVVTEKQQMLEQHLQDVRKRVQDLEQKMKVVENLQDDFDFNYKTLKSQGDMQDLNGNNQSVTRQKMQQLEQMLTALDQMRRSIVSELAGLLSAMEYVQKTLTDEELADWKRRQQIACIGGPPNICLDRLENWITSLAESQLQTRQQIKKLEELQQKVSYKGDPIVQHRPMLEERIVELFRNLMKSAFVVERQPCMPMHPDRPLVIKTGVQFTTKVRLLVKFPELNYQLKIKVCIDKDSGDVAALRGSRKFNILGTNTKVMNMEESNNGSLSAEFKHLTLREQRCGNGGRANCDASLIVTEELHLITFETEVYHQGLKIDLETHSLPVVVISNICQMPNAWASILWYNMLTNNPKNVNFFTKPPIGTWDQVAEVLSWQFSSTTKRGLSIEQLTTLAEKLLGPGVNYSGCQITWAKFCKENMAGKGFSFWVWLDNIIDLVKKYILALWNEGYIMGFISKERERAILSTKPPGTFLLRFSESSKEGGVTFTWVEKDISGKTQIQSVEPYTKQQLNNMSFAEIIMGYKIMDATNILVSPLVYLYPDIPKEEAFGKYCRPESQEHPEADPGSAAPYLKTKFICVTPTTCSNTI

Structure (SMILES) | IC50 [1, 3] [nM] | IC50 [2, 4] [nM] | IC50 [1, 5] [nM] | IC50 [2, 6] [nM]
O=C(N[C@H]1CCC[C@H]2CC[C@@H](C(=O)N3CC(c4cnccc4N4C[C@H]5C[C@@H]4CO5)C3)N2C1=O)c1cc2cc(C(F)P(=O)(O)O)ccc2s1 (stereo partly drawn) [Compound 694, ((2-(((3S,6S,9aS)-3-(3-(4-((1R,4R)-2-oxa-5-azabicyclo[2.2.1]heptan-5-yl)pyridin-3-yl)azetidine-1-carbonyl)-5-oxooctahydro-1H-pyrrolo[1,2-a]azepin-6-yl)carbamoyl)benzo [b]thiophen-5-yl)fluoromethyl) phosphonic acid] | < 100 | 300 to 3000 |  | 
O=C(N[C@H]1CCC[C@H]2CC[C@@H](C(=O)N3CCC(c4ccncn4)CC3)N2C1=O)c1cc2cc(C(F)P(=O)(O)O)ccc2s1 (stereo partly drawn) [Compound 604, (fluoro(2-(((3S,6S,9aS)-5-oxo-3-(4-(pyrimidin-4-yl)piperidine-1-carbonyl)octahydro-1H-pyrrolo[1,2-a]azepin-6-yl)carbamoyl)benzo [b]thiophen-5-yl)methyl) phosphonic acid] | 100 to 1000 | 3000 to 30000 |  | 
COc1ccncc1C1CN(C(=O)[C@@H]2CC[C@@H]3CCC[C@H](NC(=O)c4cc5cc(C(F)P(=O)(O)O)ccc5s4)C(=O)N32)C1 (stereo partly drawn) [Compound 206, (fluoro(2-(((3S,6S,9aS)-3-(3-(4-methoxypyridin-3-yl)azetidine-1-carbonyl)-5-oxooctahydro-1H-pyrrolo[1,2-a]azepin-6-yl)carbamoyl)benzo[b]thiophen-5-yl)methyl)phosphonic acid] | < 100 | 3000 to 30000 |  | 
Cn1ccc(C2(O)CCN(C(=O)[C@@H]3CC[C@@H]4CCCC[C@H](NC(=O)c5cc6cc(C(F)P(=O)(O)O)ccc6s5)C(=O)N43)C2)cc1=O (stereo partly drawn) [Compound 914, (fluoro(2-(((3S,6S,10aS)-3-(3-hydroxy-3-(1-methyl-2-oxo-1,2-dihydropyridin-4-yl)pyrrolidine-1-carbonyl)-5-oxodecahydropyrrolo [1,2-a]azocin-6-yl)carbamoyl)benzo [b]thiophen-5-yl)methyl) phosphonic acid] | 100 to 1000 | 300 to 3000 |  | 
Cc1ccncc1C1CN(C(=O)[C@@H]2CC[C@@H]3CCCC[C@H](NC(=O)c4cc5cc(CP(=O)(O)O)ccc5s4)C(=O)N32)C1 [Compound 647, ((2-(((3S,6S,10aS)-3-(3-(4-methylpyridin-3-yl)azetidine-1-carbonyl)-5-oxodecahydropyrrolo [1,2-a]azocin-6-yl)carbamoyl)benzo [b]thiophen-5-yl)methyl) phosphonic acid] | 100 to 1000 | 3000 to 30000 |  | 
Cn1ncc(C2CN(C(=O)[C@@H]3CC[C@@H]4CCC[C@H](NC(=O)c5cc6cc(C(F)P(=O)(O)O)ccc6s5)C(=O)N43)C2)c1O (stereo partly drawn) [Compound 607, (fluoro(2-(((3S,6S,9aS)-3-(3-(5-hydroxy-1-methyl-1H-pyrazol-4-yl)azetidine-1-carbonyl)-5-oxooctahydro-1H-pyrrolo[1,2-a]azepin-6-yl)carbamoyl)benzo [b]thiophen-5-yl)methyl) phosphonic acid] | < 100 | 300 to 3000 |  | 
C[C@H]1C[C@H]2CC[C@@H](C(=O)N3CC[C@@H](c4ccccc4)C3)N2C(=O)[C@@H](NC(=O)c2cc3cc(C(F)(F)P(=O)(O)O)ccc3s2)CC1O (stereo in doubt) [Compound 101, (difluoro(2-(((3S,6S,8S,9S, 10aR)-8-hydroxy-9-methyl-5-oxo-3-((S)-3-phenylpyrrolidine-1-carbonyl)decahydropyrrolo [1,2-a]azocin-6-yl)carbamoyl)benzo[b]thiophen-5-yl)methyl) phosphonic acid] |  |  | 100 to 1000 | 300 to 3000
O=C(N[C@H]1CCCC[C@H]2CCC[C@@H](C(=O)N3CC(n4ccnc4)C3)N2C1=O)c1cc2cc(C(F)(F)P(=O)(O)O)ccc2s1 [Compound 62, ((2-(((4S,7S,11aS)-4-(3-(1H-imidazol-1-yl)azetidine-1-carbonyl)-6-oxodecahydro-2H-pyrido[1,2-a]azocin-7-yl)carbamoyl)benzo[b]thiophen-5-yl)difluoromethyl) phosphonic acid] |  |  | > 10000 | > 30000
O=C(N[C@H]1CCCC[C@H]2CC[C@@H](C(=O)NCc3ccn4ccnc4c3)N2C1=O)c1cc2cc(C(F)(F)P(=O)(O)O)ccc2s1 [Compound 828] | < 100 | 300 to 3000 |  | 
O=C(N[C@H]1CCCC[C@H]2CC[C@@H](C(=O)NCc3cnc4[nH]ncc4c3)N2C1=O)c1cc2cc(C(F)(F)P(=O)(O)O)ccc2s1 [Compound 1108, ((2-(((3S,6S,10aS)-3-(((1H-pyrazolo[3,4-b]pyridin-5-yl)methyl)carbamoyl)-5-oxodecahydropyrrolo[1,2-a]azocin-6-yl)carbamoyl)benzo[b]thiophen-5-yl)difluoromethyl)phosphonic acid] | 100 to 1000 | 3000 to 30000 |  | 
O=C(N[C@H]1CCCC[C@H]2CC[C@@H](C(=O)Nc3ccc4nccc(Cl)c4c3)N2C1=O)c1cc2cc(C(F)(F)P(=O)(O)O)ccc2s1 [Compound 55, ((2-(((3S,6S,10aS)-3-((4-chloroquinolin-6-yl)carbamoyl)-5-oxodecahydropyrrolo [1,2-a]azocin-6-yl)carbamoyl)benzo[b]thiophen-5-yl)difluoromethyl) phosphonic acid] |  |  | 100 to 1000 | 300 to 3000

Second part, the molecule after the results:

IC50 [1, 3] [nM] | IC50 [2, 4] [nM] | IC50 [1, 5] [nM] | IC50 [2, 6] [nM] | Structure (SMILES)
1000 to 10000 | 3000 to 30000 |  |  | CCc1ccncc1C1CN(C(=O)[C@@H]2CC[C@@H]3CCC[C@H](NC(=O)c4cc5cc(CP(=O)(O)O)ccn5n4)C(=O)N32)C1 [Compound 618, ((2-(((3S,6S,9aS)-3-(3-(4-ethylpyridin-3-yl)azetidine-1-carbonyl)-5-oxooctahydro-1H-pyrrolo[1,2-a]azepin-6-yl)carbamoyl)pyrazolo[1,5-a]pyridin-5-yl)methyl) phosphonic acid]
< 100 | 3000 to 30000 |  |  | O=C(N[C@H]1CCCC[C@H]2CC[C@@H](C(=O)N3CC(c4cnccc4F)C3)N2C1=O)c1cc2cc(CP(=O)(O)O)ccc2s1 [Compound 566, ((2-(((3S,6S,10aS)-3-(3-(4-fluoropyridin-3-yl)azetidine-1-carbonyl)-5-oxodecahydropyrrolo[1,2-a]azocin-6-yl)carbamoyl)benzo[b]thiophen-5-yl)methyl)phosphonic acid]
1000 to 10000 | 300 to 3000 |  |  | O=C(N[C@H]1CCC[C@H]2CC[C@@H](C(=O)N3CC(c4cccnc4)CC34CC4)N2C1=O)c1ccc2ccc(C(F)P(=O)(O)O)cc2c1 (stereo partly drawn) [Compound 904, (fluoro(7-(((3S,6S,9aS)-5-oxo-3-(6-(pyridin-3-yl)-4-azaspiro[2.4]heptane-4-carbonyl)octahydro-1H-pyrrolo[1,2-a]azepin-6-yl)carbamoyl)naphthalen-2-yl)methyl) phosphonic acid]
1000 to 10000 | 3000 to 30000 |  |  | O=C(N[C@H]1C/C=C\C[C@@H]2[C@H](O)C[C@@H](C(=O)N3CC(C(=O)N4CCOCC4)C3)N2C1=O)c1cc2cc(C(F)(F)P(=O)(O)O)ccc2s1 [Compound 730, (difluoro(2-(((1R,3S,6S,10aR,Z)-1-hydroxy-3-(3-(morpholine-4-carbonyl)azetidine-1-carbonyl)-5-oxo-1,2,3,5,6,7,10,10a-octahydropyrrolo[1,2-a]azocin-6-yl)carbamoyl)benzo [b]thiophen-5-yl)methyl) phosphonic acid]
1000 to 10000 | 3000 to 30000 |  |  | O=C(N[C@H]1CC[C@H]2CC[C@@H](C(=O)N3CC(n4ccnc4)C3)N2C1=O)c1cc2cc(C(F)(F)P(=O)(O)O)ccc2s1 [Compound 732, ((2-(((3S,6S,8aS)-3-(3-(1H-imidazol-1-yl)azetidine-1-carbonyl)-5-oxooctahydro-indolizin-6-yl)carbamoyl)benzo [b]thiophen-5-yl)difluoromethyl) phosphonic acid]
 |  | 100 to 1000 | 300 to 3000 | O=C(N[C@H]1CCCC[C@H]2CC[C@@H](C(=O)Nc3ccc4c(c3)CCS4(=O)=O)N2C1=O)c1cc2cc(C(F)(F)P(=O)(O)O)ccc2s1 [Compound 57, ((2-(((3S,6S,10aS)-3-((1,1-dioxido-2,3-dihydrobenzo[b]thiophen-5-yl)carbamoyl)-5-oxodecahydropyrrolo [1,2-a]azocin-6-yl)carbamoyl)benzo[b]thiophen-5-yl)difluoromethyl) phosphonic acid]
< 100 | 300 to 3000 |  |  | O=C(N[C@H]1CCC[C@H]2CC[C@@H](C(=O)N3CC(c4cnccc4N4CCC4)C3)N2C1=O)c1cc2cc([C@@H](F)P(=O)(O)O)ccc2s1 (single isomer, unassigned) [Compound 741]
